Measured values: the supplement of paper PMC10307832

Legend:
Test in all cases: relative viability (nuclei count vs DMSO), 5 days (fraction); higher = more cells survive
[1] = compound: CC1=C(CC(=O)O)c2cc(F)ccc2/C1=C\c1ccc([S+](C)[O-])cc1 [Sulindac] + CC(C)C[C@H](NC(=O)[C@H](Cc1ccccc1)NC(=O)c1cnccn1)B(O)O [Bortezomib] (partner 0.002 µM)
How it was run: (§1)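 For relative viability, nuclei counts in treated wells were divided by those in vehicle wells. Lung cancer cell lines had been pin-tool dosed in 1536-well plates the day after seeding and cultured for 5 days, then fixed and stained in one step (final 0.05% Triton X-100, 1% formaldehyde, 1 ug/ml Hoechst) and imaged at 4×. Doses were one drug alone or a fixed anchor-drug dose plus five library-drug doses (not always all listed) in √10 steps, and values are duplicate-plate medians.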

[2] = compound: CC1=C(CC(=O)O)c2cc(F)ccc2/C1=C\c1ccc([S+](C)[O-])cc1 [Sulindac] + CS(=O)(=O)N1CCN(Cc2cc3nc(-c4cccc5[nH]ncc45)nc(N4CCOCC4)c3s2)CC1 [Pictilisib] (partner 1 µM)
How it was run: as §1

[3] = compound: CN[C@@H]1C[C@H]2O[C@@](C)([C@@H]1OC)n1c3ccccc3c3c4c(c5c6ccccc6n2c5c31)C(=O)NC4 [Staurosporine] + N=C(N)NC(=N)NCCc1ccccc1 [Phenformin] (partner 250 µM)
How it was run: as §1

[4] = compound: CN[C@@H]1C[C@H]2O[C@@](C)([C@@H]1OC)n1c3ccccc3c3c4c(c5c6ccccc6n2c5c31)C(=O)NC4 [Staurosporine] + Nc1ncn([C@H]2C[C@H](O)[C@@H](CO)O2)c(=O)n1 [Decitabine] (partner 2 µM)
How it was run: as §1

Cell Line	relative viability ([1]; first compound 0.08 µM)	relative viability ([1]; first compound 0.253 µM)	relative viability ([1]; first compound 2.53 µM)	relative viability ([1]; first compound 8 µM)	relative viability ([2]; first compound 0.08 µM)	relative viability ([2]; first compound 0.253 µM)	relative viability ([2]; first compound 2.53 µM)	relative viability ([2]; first compound 8 µM)	relative viability ([3]; first compound 0.005 µM)	relative viability ([3]; first compound 0.01581 µM)	relative viability ([3]; first compound 0.05 µM)	relative viability ([3]; first compound 0.1581 µM)	relative viability ([3]; first compound 0.5 µM)	relative viability ([4]; first compound 0.005 µM)	relative viability ([4]; first compound 0.01581 µM)	relative viability ([4]; first compound 0.05 µM)	relative viability ([4]; first compound 0.1581 µM)	relative viability ([4]; first compound 0.5 µM)	relative viability ([1]; first compound 0.8 µM)	relative viability ([2]; first compound 0.8 µM)
NCI-H1792	1.24	0.995	0.987	1.24	0.286	0.294	0.231	0.313	0.255	0.0732	0.0598	0.0859	0.0427	0.432	0.298	0.224	0.133	0.065	–	–
NCI-H1915	1.18	1.08	0.956	1.05	0.975	0.927	0.887	1.05	0.332	0.087	0.181	0.0813	0.0841	0.268	0.227	0.186	0.126	0.0975	0.861	0.761
NCI-H1975	0.387	0.461	0.334	0.441	0.301	0.28	0.282	0.286	0.208	0.135	0.136	0.103	0.0912	0.255	0.206	0.184	0.15	0.131	–	–
NCI-H1993	1.11	1.1	0.945	1.29	0.827	0.787	0.732	0.927	0.507	0.408	0.463	0.455	0.421	0.665	0.604	0.573	0.44	0.354	1.03	0.769
NCI-H2009	1.1	1.16	1.01	1.04	1.04	0.8	0.71	0.932	0.207	0.188	0.216	0.131	0.0831	0.331	0.272	0.196	0.172	0.0871	0.877	0.788
NCI-H2023	1.13	1.04	1	1.07	0.27	0.213	0.222	0.234	0.214	0.16	0.128	0.0907	0.0615	0.218	0.162	0.116	0.0753	0.0615	0.666	0.249
NCI-H2085	0.976	1.06	1.12	1.11	0.459	0.415	0.377	0.447	–	0.197	0.312	0.151	0.174	0.527	0.4	0.463	0.364	0.352	0.917	0.433
NCI-H2087	1.17	0.835	0.892	1.09	0.951	0.783	0.916	0.984	0.364	0.214	0.14	0.0795	0.0731	0.28	0.141	0.094	0.0598	0.0694	0.695	0.622
NCI-H2126	1.2	1.15	1.2	1.19	0.46	0.498	0.497	0.479	0.483	0.245	0.336	0.237	0.245	0.612	0.521	0.468	0.43	0.363	1.06	0.462
NCI-H2347	0.884	0.97	0.86	1.11	0.298	0.637	0.6	0.509	0.269	0.253	0.201	0.216	0.165	0.527	0.406	0.384	0.309	0.323	0.704	0.503
NCI-H2405	1.01	1.01	0.96	1.06	0.548	0.459	0.407	0.603	0.326	0.162	0.117	0.0864	0.0856	0.516	0.161	0.119	0.107	0.0998	0.888	0.438
NCI-H3122	1.05	1.01	1.04	1.02	0.675	0.602	0.627	0.621	0.283	–	0.335	0.12	0.0915	0.541	–	0.602	–	0.329	1.1	0.592
PC-3 [JPC-3]	0.967	0.796	0.907	0.862	0.886	0.81	0.753	0.857	–	0.394	0.352	0.247	0.181	0.883	0.586	0.55	0.422	0.349	1.02	0.55
PC-14	1.05	0.902	0.929	0.783	0.83	0.65	0.73	0.757	0.26	0.129	0.0894	0.0651	0.0636	0.22	0.137	0.0771	0.0491	0.0544	–	–
RERF-LC-KJ	1.23	1.08	1.07	1.25	0.57	0.626	0.473	0.579	0.209	0.269	0.225	0.241	0.229	0.647	0.397	0.275	0.23	0.201	0.92	–
SK-LU-1	1.7	1.07	0.906	1.8	0.582	0.592	0.49	0.703	0.235	0.111	–	0.0994	0.0726	0.331	0.232	0.212	0.229	0.154	–	–
SW 1573	–	1	1.19	1.13	0.508	0.632	0.511	0.605	0.201	0.156	0.0959	0.101	0.0586	0.227	0.15	0.135	0.0749	0.067	–	0.451
